According to PMC4784888, “Activity Based High-Throughput Screening for Novel O-GlcNAc Transferase Substrates Using a Dynamic Peptide Microarray” (PLoS ONE, 2016):

Columns and labels:
nc-OGT = experiment: O-GlcNAcylation on kinase substrate peptide microarray, nc-OGT; assay type: biochemical, human; conditions: bacterial lysate containing nc-OGT (7 μg/μL), 1 mM UDP-GlcNAc, 50 mM Tris-HCl pH 7.5, 30°C, FITC antibody fluorescence, corrected for signal without UDP-GlcNAc
Experimental: (§1) Plasmids encoding s-OGT, m-OGT, and nc-OGT are generous gifts from John A. Hanover (National Institute of Health, USA). OGT overexpression was carried out as previously described. All the plasmids were transformed into E.coli BL21 (DE3) competent cells to produce a cell lysate containing OGT for use or for further purification. Briefly, inoculated a single colony into 50 ml of LB broth media containing 50 μg/ml ampicillin and cells were grown overnight at 37°C with vigorous shaking. 50 mL of the start culture was added into 1L LB broth media containing 50 μg/mL ampicillin and it was incubated with shaking at 200 rpm at 37°C until A600 reached 0.4–0.6. After the culture was cooled to room temperature, 0.5 mM IPTG was added into the culture to induce protein expression. After 16 hours, the cells were collected by centrifugation for 10 min at 4000 RPM at 4°C. The pellets were lysed in lysis buffer containing 20 mM Tris-HCl, pH 7.5, 1 mg/mL lysome, 0.1% triton x-100 and complete mini EDTA-free protease inhibitor cocktail on ice for 10 min and the lysate was sonicated until the DNA was completely sheared. After centrifugation for 10 min at 12000 rpm at 4°C, the supernatant was carefully transferred into a clean tube and was ready for the array assay or for further purification. Protein expression was determined by coomassie blue staining and western blotting using an anti-OGT antibody.
(§2) Peptide O-GlcNAcylation was assessed using PamChip 4 microarray chips with a PamStation 12 instrument (Pamgene international, The Netherlands). The OGT enzyme reaction was prepared essentially as described[26] with minor modifications. Briefly, before addition of the enzyme reaction, the microarray was blocked with blocking buffer (1% BSA in TBS). After 30 cycles (2 cycles/min) blocking, the blocking buffer was aspirated and the microarray was incubated with 40 μL of the enzyme reaction containing OGT (lysate or purified), OGT reaction buffer (50 mM Tris—HCl, pH 7.5;1 mM DTT;12.5 mM MgCl2), a 1:1 pre-incubated mixture of anti-O-GlcNAc and FITC conjugated secondary antibody, and the sugar donor UDP-GlcNAc or water as a control for 480 cycles (2 cycles/min) at 30°C. The microarray was run in parallel by pumping the reaction up and down through the porous membrane at every cycle and a tiff image was obtained at every 20 cycles by a CCD camera inside the PamStation. O-GlcNAcylation of each peptide was detected by a fluorescent signal which was produced by an FITC conjugated antibody bound to the O-GlcNAc moiety on the peptide.
(§3) Image analysis was performed using BioNavigator 6 software (Pamgene international, The Netherlands). Briefly, each image was quantified by automated array grid finding and subsequent quantification of signal and local background for each individual spot. In this work, the signal median-minus-background value was used as the quantitative parameter for the O-GlcNAcylation of the peptide.
(§4) Dynamic peptide microarray (PamChip) technology has been successfully and widely used for kinase activities profiling in the last decade. In the present work, we describe, for the first time, the utility of this peptide microarray format for the identification of human OGT activity. Due to the fact that O-GlcNAcylation and phosphorylation may occur at the same or proximal amino acids on the same protein [9], a peptide microarray of 144 peptides derived from different kinase substrates (S1 Appendix) was selected for an initial test. […] O-GlcNAcylation of peptides in each individual spot was detected by a fluorescent signal produced by the FITC labelled antibody recognizing the O-GlcNAcylated amino acids of converted peptides. Kinetic activity was measured through scanning the signal at regular intervals.
(§5) Fig 2 Identification of human OGT substrates from a kinase substrate and nuclear hormone receptor interaction peptide microarray. […]

m-OGT = experiment: O-GlcNAcylation on kinase substrate peptide microarray, m-OGT; assay type: biochemical, human; conditions: bacterial lysate containing m-OGT (7 μg/μL), 1 mM UDP-GlcNAc, 50 mM Tris-HCl pH 7.5, 30°C, FITC antibody fluorescence, corrected for signal without UDP-GlcNAc
Experimental: as §1, §2, §3, §4, §5

s-OGT = experiment: O-GlcNAcylation on kinase substrate peptide microarray, s-OGT; assay type: biochemical, human; conditions: bacterial lysate containing s-OGT (7 μg/μL), 1 mM UDP-GlcNAc, 50 mM Tris-HCl pH 7.5, 30°C, FITC antibody fluorescence, corrected for signal without UDP-GlcNAc
Experimental: as §1, §2, §3, §4, §5

[1] = tested on: OGT (s-OGT, m-OGT, nc-OGT); experiment: O-GlcNAcylation on kinase substrate peptide microarray, three isoforms taken together; assay type: biochemical, human; conditions: kinase substrate microarray; bacterial lysates s-, m-, nc-OGT; 1 mM UDP-GlcNAc
Experimental: as §1, with “The pellets were lysed in lysis buffer containing 20 mM Tris-HCl, pH 7.5, 1 mg/mL lysome, 0.1% triton x-100 and complete mini EDTA-free protease inhibitor cocktail on ice for 10 min and the lysate was sonicated until the DNA was completely sheared.” left out
Peptide O-GlcNAcylation was assessed using PamChip 4 microarray chips with a PamStation 12 instrument (Pamgene international, The Netherlands). […] O-GlcNAcylation of each peptide was detected by a fluorescent signal which was produced by an FITC conjugated antibody bound to the O-GlcNAc moiety on the peptide.
as §3
Dynamic peptide microarray (PamChip) technology has been successfully and widely used for kinase activities profiling in the last decade. […] Kinetic activity was measured through scanning the signal at regular intervals. […]

[2] = molecular target: T1, m-OGT (mitochondrial isoform of O-GlcNAc transferase) (human) (UniProt O15294)
T1 sequence: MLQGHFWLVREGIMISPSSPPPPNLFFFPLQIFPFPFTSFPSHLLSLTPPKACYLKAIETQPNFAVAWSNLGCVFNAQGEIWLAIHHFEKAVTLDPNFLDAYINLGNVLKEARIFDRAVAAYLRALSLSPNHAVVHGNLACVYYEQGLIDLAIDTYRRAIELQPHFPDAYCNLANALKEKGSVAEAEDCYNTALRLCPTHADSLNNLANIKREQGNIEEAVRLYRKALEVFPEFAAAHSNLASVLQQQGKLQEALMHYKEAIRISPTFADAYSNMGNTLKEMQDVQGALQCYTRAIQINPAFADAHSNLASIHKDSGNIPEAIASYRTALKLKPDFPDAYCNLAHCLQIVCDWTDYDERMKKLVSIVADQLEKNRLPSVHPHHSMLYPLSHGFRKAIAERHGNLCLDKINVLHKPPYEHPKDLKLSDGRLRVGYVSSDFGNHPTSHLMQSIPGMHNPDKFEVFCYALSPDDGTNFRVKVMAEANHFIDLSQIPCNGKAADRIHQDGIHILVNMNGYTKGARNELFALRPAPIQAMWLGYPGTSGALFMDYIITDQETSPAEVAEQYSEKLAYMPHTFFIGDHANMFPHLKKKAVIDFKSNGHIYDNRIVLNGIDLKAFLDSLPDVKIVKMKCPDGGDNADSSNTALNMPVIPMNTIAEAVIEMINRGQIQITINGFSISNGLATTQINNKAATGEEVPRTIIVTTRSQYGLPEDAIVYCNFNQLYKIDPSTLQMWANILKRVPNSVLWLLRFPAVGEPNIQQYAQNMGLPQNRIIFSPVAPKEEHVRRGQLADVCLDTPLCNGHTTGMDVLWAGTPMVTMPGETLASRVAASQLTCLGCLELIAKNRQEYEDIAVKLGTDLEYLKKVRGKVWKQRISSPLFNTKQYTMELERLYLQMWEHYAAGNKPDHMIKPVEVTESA

## MLRGRSLSVTSLG [GYS2_1_13, kinase substrate microarray peptide …]
nc-OGT
  OGT isoforms activity, nc: P (Signal greater than 5% of the highest signal was defined as positive (P))
m-OGT
  OGT isoforms activity, m: P (Signal greater than 5% of the highest signal was defined as positive (P))
s-OGT
  OGT isoforms activity, s: P (Signal greater than 5% of the highest signal was defined as positive (P))
[1]
  O-GlcNAcylation by all three isoforms OGT: significantly O-GlcNAcylated by all three isoforms OGT

## RBL-2_410–422 T417A peptide (from UniProt Q08999 410-422)
[2]
  O-GlcNAcylation of the peptide in solution, UDP-Glo assay (UDP formation): 20%

## RBL-2_410–422 T421A peptide (from UniProt Q08999 410-422)
[2]
  decrease of the O-GlcNAcylation of the immobilised peptide by purified m-OGT (0.2 μg/μL, 1 mM UDP-GlcNAc), peptide microarray, against the control peptide (wild type with C415A): 40%
